From the supplement of paper PMC10883282

How the values were obtained:
SW1353 [1] = assay: standardised AUC of viability dose-response curve (72 h) (fraction (0-1)); higher = less growth inhibition (more resistant)
Outline: (§1)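 Sarcoma cell lines in 384-well plates were treated in triplicate for 72 h with 2.5 µl of compound dilution series (compound-plate series 10 mM to 0.0002 mM, 1:3 steps). ATPLite viability was scaled 1 (full) to 0 (none) and fitted per drug and cell line with a four-parameter log-logistic model. The standardised area under the dose-response curve in log-dose space (modified drexplorer computeAUC) runs from 1 (no response) to 0 (full response).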

SYO-1 [2] = assay: as above
Outline: as §1

SW982 = assay: as above
Outline: as §1

A204 = assay: as above
Outline: as §1

SW684 = assay: as above
Outline: as §1

SW872 = assay: as above
Outline: as §1

RD-ES = assay: as above
Outline: as §1

KHOS-NP = assay: as above
Outline: as §1

G401 = assay: as above
Outline: as §1

KHOS-240S [3] = assay: as above
Outline: as §1

SK-ES-1 = assay: as above
Outline: as §1

HS729 = assay: as above
Outline: as §1

RD [4] = assay: as above
Outline: as §1

HT1080 = assay: as above
Outline: as §1

SK-LMS-1 = assay: as above
Outline: as §1

MES-SA [5] = assay: as above
Outline: as §1

VA-ES-BJ = assay: as above
Outline: as §1

SW1353 [6] = assay: relative viability vs DMSO control (72 h) (fraction); higher = more viable cells
Outline: (§2)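 Sarcoma cell lines in 384-well plates, seeded to reach 80–90% confluence, were given compound after 24 h and kept 72 h at 37 °C, 5% CO2, with 0.1% DMSO vehicle and a 5 µM positive control. Relative viability came from ATPLite as percent growth, averaged over up to triplicate wells. On the rescaled values, 1 equals full and 0 equals none.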

SYO-1 [7] = assay: as above
Outline: as §2

KHOS-240S [8] = assay: as above
Outline: as §2

RD [9] = assay: as above
Outline: as §2

MES-SA [10] = assay: as above
Outline: as §2

COc1cc(CCc2cc(NC(=O)c3ccc(N4CC(C)NC(C)C4)cc3)n[nH]2)cc(OC)c1 (configuration not stated) [AZD-4547]
Conditions | standardised AUC
A204 | 0.742
G401 | 0.729
HS729 | 0.752
HT1080 | 0.965
KHOS-240S [3] | 0.831
KHOS-NP | 0.947
MES-SA [5] | 0.857
RD [4] | 0.948
RD-ES | 0.903
SK-ES-1 | 0.869
SK-LMS-1 | 0.988
SW684 | 0.965
SW872 | 0.934
SW982 | 0.91
SW1353 [1] | 0.873
SYO-1 [2] | 0.698
VA-ES-BJ | 0.987

relative viability
Conditions | KHOS-240S [8] | MES-SA [10] | RD [9] | SW1353 [6] | SYO-1 [7]
0.00017 µM | 1.04 | 0.886 | 1.03 | 1.06 | 0.945
0.00051 µM | 1.07 | 0.888 | 1.08 | 1.03 | 0.864
0.00152 µM | 1.036 | 0.92 | 1.07 | 1.03 | 0.836
0.00457 µM | 1.02 | 0.921 | 1.07 | 0.981 | 0.763
0.01372 µM | 1.02 | 0.894 | 1.08 | 0.938 | 0.672
0.04115 µM | 0.9306 | 0.89 | 1.1 | 0.886 | 0.637
0.1235 µM | 0.841 | 0.789 | 1.063 | 0.893 | 0.588
0.3704 µM | 0.784 | 0.708 | 1.08 | 0.849 | 0.559
1.111 µM | 0.72 | 0.655 | 1.06 | 0.821 | 0.519
3.333 µM | 0.619 | 0.554 | 0.858 | 0.829 | 0.408
10 µM | 0.288 | 0.266 | 0.419 | 0.595 | 0.224
